Experimental data reported in patent publication US8012956B2, “Tropane compounds” (Exelixis, Inc., priority 2007, dated 2011).

Target: HSP90 (Homo sapiens, UniProt P07900)
Assay: HSP90 inhibition (HSP90 IC50)
Assay type: biochemical

Molecule | IC50 [nM]
COc1cccc(C(=O)N[C@H]2C[C@H]3CC[C@@H](C2)N3c2ccc(C(N)=O)cn2)c1CCCCO [6-[3-endo-({[2-(4-hydroxybutyl)-3-(methyloxy)phenyl]carbonyl}amino)-8-azabicyclo[3.2.1]oct-8-yl]pyridine-3-carboxamide] | 500 to 999
COc1cccc(C(=O)N[C@H]2C[C@H]3CC[C@@H](C2)N3c2ccc(C(=O)NCc3cc(F)ccc3F)cn2)c1C [N-[(2,5-difluorophenyl)methyl]-6-[3-endo-({[2-methyl-3-(methyloxy)phenyl]carbonyl}amino)-8-azabicyclo[3.2.1]oct-8-yl]pyridine-3-carboxamide] | 500 to 999
COc1cccc(C(=O)N[C@H]2C[C@H]3CC[C@@H](C2)N3c2ccc(C(=O)NC3CCN(Cc4ccccc4)CC3)cn2)c1C [6-[3-endo-({[2-methyl-3-(methyloxy)phenyl]carbonyl}amino)-8-azabicyclo[3.2.1]oct-8-yl]-N-[1-(phenylmethyl)piperidin-4-yl]pyridine-3-carboxamide] | < 500
N-[8-(5-acetylpyradin-2-yl)-8- azabicyclo[3.2.1]oct-3-endo-yl]-2- methyl-3-(methyloxy)benzamide | 500 to 999
COc1cccc(C(=O)N[C@H]2C[C@H]3CC[C@@H](C2)N3c2ccc(C(=O)NCCCN(C)C)cn2)c1C [N-[3-(dimethylamino)propyl]-6-[3-endo-({[2-methyl-3-(methyloxy)phenyl]carbonyl}amino)-8-azabicyclo[3.2.1]oct-8-yl]pyridine-3-carboxamide] | 500 to 999
COc1cccc(C(=O)N[C@H]2C[C@H]3CC[C@@H](C2)N3c2ccc(C(N)=O)cn2)c1CC(O)CO (stereo partly drawn) [6-[3-endo-({[2-(2,3-dihydroxypropyl)-3-(methyloxy)phenyl]carbonyl}amino)-8-azabicyclo[3.2.1]oct-8-yl]pyridine-3-carboxamide] | 2000 to 10000
COc1cccc(C(=O)NC2CC3CCC(C2)N3c2ccc(C(=O)N[C@@H](C)CO)cn2)c1C (stereo partly drawn) [N-[(1S)-2-hydroxy-1-methylethyl]-6-[3-endo-({[2-methyl-3-(methyloxy)phenyl]carbonyl}amino)-8-azabicyclo[3.2.1]oct-8-yl]pyridine-3-carboxamide] | 1000 to 2000
CCNc1cc(C(=O)N[C@H]2C[C@H]3CC[C@@H](C2)N3c2ccc(C(C)=O)cn2)ccc1C(N)=O [N4-[8-(5-acetylpyridin-2-yl)-8-azabicyclo[3.2.1]oct-3-endo-yl]-2-(ethylamino)benzene-1,4-dicarboxamide] | < 500
CC(C)CNc1cc(C(=O)N[C@H]2C[C@H]3CC[C@@H](C2)N3c2ccc(C(=O)C3CC3)cn2)c(Br)cc1C(N)=O [2-bromo-N-{8-[5-(cyclopropylcarbonyl)pyridin-2-yl]-8-azabicyclo[3.2.1]oct-3-endo-yl}-5-[(2-methylpropyl)amino]benzene-1,4-dicarboxamide] | < 500
COc1cccc(C(=O)N[C@H]2C[C@H]3CC[C@@H](C2)N3c2ccc(C(=O)NCc3ccco3)cn2)c1C [N-(furan-2-ylmethyl)-6-[3-endo-({[2-methyl-3-(methyloxy)phenyl]carbonyl}amino)-8-azabicyclo[3.2.1]oct-8-yl]pyridine-3-carboxamide] | < 500
COc1cccc(C(=O)N[C@H]2C[C@H]3CC[C@@H](C2)N3c2ccc(C(=O)NCc3cccs3)cn2)c1C [6-[3-endo({[2-methyl-3-(methyloxy)phenyl]carbonyl}amino)-8-azabicyclo[3.2.1]oct-8-yl]-N-(2-thienylmethyl)pyridine-3-carboxamide] | < 500
CCOCCC(=O)c1ccc(N2[C@@H]3CC[C@H]2C[C@@H](NC(=O)c2ccc(C(N)=O)c(NCC4CC4)c2)C3)nc1 [2-[(cyclopropylmethyl)amino]-N4-(8-{5-[3-(ethyloxy)propanoyl]pyridin-2-yl}-8-azabicyclo[3.2.1]oct-3-endo-yl)benzene-1,4-dicarboxamide] | < 500
CC(C)C(=O)c1ccc(N2[C@@H]3CC[C@H]2C[C@@H](NC(=O)c2ccc(C(N)=O)c(NCC4CC4)c2)C3)nc1 | 1000 to 2000
CCNc1cc(C(N)=O)c(N[C@H](C)CC)cc1C(=O)NC1CC2CCC(C1)N2c1ccc(C(=O)C2CC2)cn1 (stereo partly drawn) [N-{8-[5-(cyclopropylcarbonyl)pyridin-2-yl]-8-azabicyclo[3.2.1]oct-3-endo-yl}-2-(ethylamino)-5-{[(1R)-1-methylpropyl]amino}benzene-1,4-dicarboxamide] | 2000 to 10000
COc1cccc(C(=O)N[C@H]2C[C@H]3CC[C@@H](C2)N3c2ccc(C(=O)NCCCN3CCN(C)CC3)cn2)c1C [6-[3-endo-({[2-methyl-3-(methyloxy)phenyl]carbonyl}amino)-8-azabicyclo[3.2.1]oct-8-yl]-N-[3-(4-methylpiperazin-1-yl)propyl]pyridine-3-carboxamide] | 500 to 999
COc1cccc(C(=O)N[C@H]2C[C@H]3CC[C@@H](C2)N3c2ccc(C(=O)NCc3ccc(C(F)(F)F)cc3)cn2)c1C [6-[3-endo-({[2-methyl-3-(methyloxy)phenyl]carbonyl}amino)-8-azabicyclo[3.2.1]oct-8-yl]-N-{[4-(trifluoromethyl)phenyl]methyl}pyridine-3-carboxamide] | 1000 to 2000
COc1cccc(C(=O)NC2CC3CCC(C2)N3c2ccc(C(=O)NC(C)c3ccc(C4CCNCC4)cc3F)cn2)c1C (stereo not drawn) [N-[1-(2-fluoro-4-piperidin-4-ylphenyl)ethyl]-6-[3-endo-({[2-methyl-3-(methyloxy)phenyl]carbonyl}amino)-8-azabicyclo[3.2.1]oct-8-yl]pyridine-3-carboxamide] | < 500
COc1cccc(C(=O)N[C@H]2C[C@H]3CC[C@@H](C2)N3c2ccc(C(=O)NCCOC(C)C)cn2)c1C [N-{2-[(1-methylethyl)oxy]ethyl}-6-(3-endo-({[2-methyl-3-(methyloxy)phenyl]carbonyl}amino)-8-azabicyclo[3.2.1]oct-8-yl]pyridine-3-carboxamide] | 2000 to 10000

More lines, now with the values ahead:

IC50 [nM] | Molecule
500 to 999 | CCOc1ccccc1CNC(=O)c1ccc(N2[C@@H]3CC[C@H]2C[C@@H](NC(=O)c2cccc(OC)c2C)C3)nc1 [N-{[2-(ethyloxy)phenyl]methyl}-6-[3-endo-({[2-methyl-3-(methyloxy)phenyl]carbonyl}amino)-8-azabicyclo[3.2.1]oct-8-yl]pyridine-3-carboxamide]
1000 to 2000 | CC(=O)Nc1cc(C(=O)N[C@H]2C[C@H]3CC[C@@H](C2)N3c2ccc(C(N)=O)cn2)ccc1C(N)=O [2-(acetylamino)-N4-{8-[5-(aminocarbonyl)pyridin-2-yl]-8-azabicyclo[3.2.1]oct-3-endo-yl}benzene-1,4-dicarboxamide]
< 500 | NC(=O)c1ccc(C(=O)N[C@H]2C[C@H]3CC[C@@H](C2)N3c2ccc(C(=O)CCN3CCCC3)cn2)cc1NCC1CC1 [2-[(cyclopropylmethyl)amino]-N4-{8-[5-(3-pyrrolidin-1-ylpropanoyl)pyridin-2-yl]-8-azabicyclo[3.2.1]oct-3-endo-yl}benzene-1,4-dicarboxamide]
2000 to 10000 | CC(=O)c1ccc(N2[C@@H]3CC[C@H]2C[C@@H](NC(=O)c2ccc(C(N)=O)c(N4CCC4)c2)C3)nc1 [N4-[8-(5-acetylpyridin-2-yl)-8-azabicyclo[3.2.1]oct-3-endo-yl]-2-azetidin-1-ylbenzene-1,4-dicarboxamide]
1000 to 2000 | COc1cccc(C(=O)N[C@H]2C[C@H]3CC[C@@H](C2)N3c2ccc(C(=O)NCCCC(OC)OC)cn2)c1C [N-[4,4-bis(methyloxy)butyl]-6-[3-endo-({[2-methyl-3-(methyloxy)phenyl]carbonyl}amino)-8-azabicyclo[3.2.1]oct-8-yl]pyridine-3-carboxamide]
< 500 | CC[C@H](C)Nc1cc(C(=O)NC2CC3CCC(C2)N3c2ccc(C(=O)C3CC3)cn2)c(C)cc1C(N)=O (stereo partly drawn) [N-{8-[5-(cyclopropylcarbonyl)pyridine-2-yl]-8-azabicyclo[3.2.1]oct-3-endo-yl}-2-methyl-5-{[(1S)-1-methylpropyl]amino}benzene-1,4-dicarboxamide]
500 to 999 | COc1cccc(C(=O)N[C@H]2C[C@H]3CC[C@@H](C2)N3c2ccc(C(N)=O)cn2)c1C [6-[3-endo-({[2-methyl-3-(methyloxy)phenyl]carbonyl}amino)-8-azabicyclo[3.2.1]oct-8-yl]pyridine-3-carboxamide]
< 500 | CC[C@@H](C)Nc1cc(C(=O)NC2CC3CCC(C2)N3c2ccc(C(=O)C3CC3)cn2)c(Br)cc1C(N)=O (stereo partly drawn) [2-bromo-N-{8-[5-(cyclopropylcarbonyl)pyridin-2-yl]-8-azabicyclo[3.2.1]oct-3-endo-yl}-5-{[(1R)-1-methylpropyl]amino}benzene-1,4-dicarboxamide]
< 500 | COc1ccc(CNC(=O)c2ccc(N3[C@@H]4CC[C@H]3C[C@@H](NC(=O)c3cccc(OC)c3C)C4)nc2)c(Cl)c1 [N-{[2-chloro-4-(methyloxy)phenyl]methyl}-6-[3-endo-({[2-methyl-3-(methyloxy)phenyl]carbonyl}amino)-8-azabicyclo[3.2.1]oct-8-yl]pyridine-3-carboxamide]
2000 to 10000 | COc1ccc([C@@H](C)NC(=O)c2ccc(N3C4CCC3CC(NC(=O)c3cccc(OC)c3C)C4)nc2)cc1 (stereo partly drawn) [6-[3-endo-({[2-methyl-3-(methyloxy)phenyl]carbonyl}amino)-8-azabicyclo[3.2.1]oct-8-yl]-N-{(1R)-1-[4-(methyloxy)phenyl]ethyl}pyridine-3-carboxamide]
< 500 | CC(C)(C)Nc1cc(C(=O)N[C@H]2C[C@H]3CC[C@@H](C2)N3c2ccc(C(=O)C3CC3)cn2)c(Br)cc1C(N)=O [2-bromo-N-{8-[5-(cyclopropylcarbonyl)pyridin-2-yl]-8-azabicyclo[3.2.1]oct-3-endo-yl}-5-[(1,1-dimethylethyl)amino]benzene-1,4-dicarboxamide]
< 500 | CN1CCN(c2ccc(CNC(=O)c3ccc(N4[C@@H]5CC[C@H]4C[C@@H](NC(=O)c4ccc(C(N)=O)cc4)C5)nc3)cc2)CC1 [N-(8-{5-[({[4-(4-methylpiperazin-1-yl)phenyl]methyl}amino)carbonyl]pyridin-2-yl}-8-azabicyclo[3.2.1]oct-3-endo-yl)benzene-1,4-dicarboxamide]
< 500 | CC(C)[C@@H](C)Nc1cc(C(=O)NC2CC3CCC(C2)N3c2ccc(C(=O)C3CC3)cn2)c(Br)cc1C(N)=O (stereo partly drawn) [2-bromo-N-{8-[5-(cyclopropylcarbonyl)pyridin-2-yl]-8-azabicyclo[3.2.1]oct-3-endo-yl}-5-{[(1R)-1 2-dimethylpropyl]amino}benzene-1,4-dicarboxamide]
